Experimental data: patent publication US20030171340A1 (priority 2002, published 2003)

How the values were obtained:
[1] = tested on: New Ps isolate from sediment; assay: Growth of new Ps isolate from sediment in the presence of tetracycline or tetracycline-Fe2+ complex; format: cell-based, Pseudomonas; settings: experiment C
Experimental: (§1) Individual components were tested for inhibition or enhancement of Pseudomonas isolated from the site.

[2] = tested on: Pseudomonas isolate (Ps isolate, Susquehanna flats); assay: Growth of Pseudomonas isolate in TSB in the presence of tetracycline, metal cations or tetracycline metal complexes; format: cell-based; settings: for Ps isolate growth (S/I/+4): experiment D
Experimental: as §1

| Compound | Ps isolate growth (R/I/S) ([1]; 8 μg/mL) | Ps isolate growth (R/I/S) ([1]; 40 μg/mL) | Ps isolate growth (R/I/S) ([1]; 100 μg/mL) | Ps isolate growth ([2]; experiment A, metal cation alone, 1 mL TSB + 4 μl (4 μg/mL)) | Ps isolate growth (S/I/+4) ([2]; 1 μg/mL) | Ps isolate growth (S/I/+4) ([2]; 4 μg/mL) | Ps isolate growth (S/I/+4) ([2]; 8 μg/mL) | Ps isolate growth (S/I/+4) ([2]; metal cation alone, concentration not given) |
| --- | --- | --- | --- | --- | --- | --- | --- | --- |
| CN(C)[C@@H]1C(O)=C(C(N)=O)C(=O)[C@@]2(O)C(O)=C3C(=O)c4c(O)cccc4[C@@](C)(O)[C@H]3C[C@@H]12 [tetracycline] | R | R | R | – | – | – | – | – |
| copper acetate [Cu^2+] | – | – | – | Growth | +4 | I | S (no growth) | +4 |
